# Experimental data: publication PMC9455983 (International Journal of Molecular Sciences, 2022)
# Like-named read-outs stand apart in the source and are kept apart here.
# Tests used:
# [1] = molecular target: T1, mu-opioid receptor (MOR) (Rattus norvegicus, UniProt P33535); experiment: MOR radioligand competition binding assay ([3H]-DAMGO); conditions: Mu screening results
# T1 construct: Rat cortices were homogenized using 50 mM Tris, pH 7.4, and centrifuged at 16,500 rpm for 10 min; from tissue; host or cells: rat cortex membranes
# Protocol: MOR binding assay: Rat cortices were homogenized using 50 mM Tris, pH 7.4, and centrifuged at 16,500 rpm for 10 min. The pellets were resuspended in fresh buffer and incubated at 37 °C for 30 min. Following incubation, the suspensions were centrifuged as before, the resulting pellets were resuspended in 100 volumes of 50 mM Tris, pH 7.4 plus 2 mg/mL bovine serum and the suspensions combined. Each assay tube contained 0.5 mL of membrane suspension, 2 nM [^3H]-DAMGO, and 0.02 mg/mL mixture in a total volume of 0.65 mL [13, 45, 53, 55].
# (§1) All three binding assays were terminated by filtration through GF/B filters, soaked in 5 mg/mL bovine serum albumin, 50 mM Tris, pH 7.4, on a Tomtec Mach II Harvester 96. The filters were subsequently washed with 6 mL of assay buffer. Bound radioactivity was counted on a Wallac Betaplate Liquid Scintillation Counter. Experiments were conducted using two replicates and repeated twice. Values in Scheme 2 represent the mean ± SD of two experiments with two replicates in each test.
# [2] = molecular target: T2, kappa-opioid receptor (KOR) (Cavia porcellus, UniProt P41144); experiment: KOR radioligand competition binding assay ([3H]U69,593); design: species or system guinea pig; conditions: Kappa screening results
# T2 construct: Guinea pig cortices and cerebella were homogenized using 50 mM Tris, pH 7.4; from tissue; host or cells: guinea pig cortex and cerebellum membranes
# Protocol: KOR binding assay: Guinea pig cortices and cerebella were homogenized using 50 mM Tris, pH 7.4, 10 mM MgCl2-6H2O, […] centrifuged and incubated as above. Each assay tube contained 2 nM [^3H]U69,593. Assay tubes were incubated for 2 h at 25 °C. Unlabeled U50,488 was used as a competitor to generate a standard curve and determine nonspecific binding.
# as §1
# [3] = molecular target: T3, delta-opioid receptor (DOR) (Rattus norvegicus, UniProt P33533); experiment: DOR radioligand competition binding assay ([3H]-DPDPE); conditions: Delta screening results
# T3 construct: Rat cortices were homogenized using 50 mM Tris, pH 7.4, 10 mM MgCl2-6H2O, 200 µM PMSF; from tissue; host or cells: rat cortex membranes
# Protocol: DOR binding assay: Rat cortices were homogenized using 50 mM Tris, pH 7.4, 10 mM MgCl2-6H2O, 200 µM PMSF, centrifuged and incubated as above. Each assay tube contained 2 nM [^3H]-DPDPE. Assay tubes were incubated for 2.5 h at 25 °C. Unlabeled DPDPE was used as a competitor to generate a standard curve and determine nonspecific binding.
# as §1
# [4] = experiment 1, unit inferred, read-out: Ki (Exp 1)
# [5] = experiment 2, unit inferred, read-out: Ki (Exp 2)
# [6] = mean of Exp 1 and Exp 2, unit inferred, read-out: MEAN (Ki)
# [7] = mean of two experiments, read-out: Ki
# [8] = first Ki column, unit not printed (apparently M), read-out: Ki (first column)
# [9] = mean of both Ki, unit inferred, read-out: MEAN (Ki)
# [10] = second Ki column, unit not printed (apparently M), read-out: Ki (second column)
SMILES,"Ki [1, 4]","Ki [1, 5]","Ki [1, 6]","Ki [1, 7]","Ki [2, 4]","Ki [2, 5]","Ki [2, 6]","Ki [2, 7]","Ki [3, 8]","Ki [3, 9]","Ki [3, 7]","Ki [3, 10]"
Cc1cc(O)cc(C)c1C[C@@H](CN1C(=N)NC[C@@H]1Cc1ccc(O)cc1)N1C[C@H](CC(C)C)NC1=N [1968-31],295 nM,298 nM,297 nM,297 nM,2580 nM,2080 nM,2330 nM,2330 nM,2200 nM,1940 nM,1940 nM,1680 nM
N=C1NC[C@H](Cc2ccc(O)cc2)N1C[C@H](Cc1ccccc1)N1C[C@H](Cc2ccc(O)cc2)NC1=N [1968-18],403 nM,401 nM,402 nM,402 nM,3470 nM,3630 nM,3550 nM,3550 nM,7570 nM,8080 nM,8080 nM,8580 nM
Cc1cc(O)cc(C)c1C[C@H]1CNC(=N)N1C[C@H](Cc1c(C)cc(O)cc1C)N1C[C@H](Cc2ccc(O)cc2)NC1=N [1968-62],64.2 nM,78.4 nM,71.3 nM,71 nM,2300 nM,2340 nM,2320 nM,2320 nM,1530 nM,1280 nM,1280 nM,1020 nM
Cc1cc(O)cc(C)c1C[C@@H](CN1C(=N)NC[C@@H]1Cc1ccc(O)cc1)N1C[C@H](Cc2ccccc2)NC1=N [1968-29],117 nM,114 nM,116 nM,116 nM,1450 nM,1450 nM,1450 nM,1450 nM,967 nM,836 nM,836 nM,705 nM
CC(C)C[C@H]1CN([C@@H](CC(C)C)CN2C(=N)NC[C@@H]2Cc2ccccc2)C(=N)N1 [1968-11],2980 nM,3040 nM,3010 nM,3010 nM,13900 nM,8930 nM,11400 nM,11400 nM,26400 nM,58600 nM,58600 nM,90900 nM
N=C1NC[C@H](Cc2ccccc2)N1C[C@H](Cc1ccccc1)N1C[C@H](Cc2ccc(O)cc2)NC1=N [1968-2],135 nM,142 nM,139 nM,139 nM,5360 nM,5570 nM,5460 nM,5460 nM,6920 nM,8100 nM,8100 nM,9280 nM
Cc1cc(O)cc(C)c1C[C@H]1CN([C@@H](Cc2ccc(O)cc2)CN2C(=N)NC[C@@H]2Cc2c(C)cc(O)cc2C)C(=N)N1 [1968-56],55 nM,69.9 nM,62.5 nM,62 nM,736 nM,1250 nM,991 nM,991 nM,1330 nM,1300 nM,1300 nM,1260 nM
Cc1cc(O)cc(C)c1C[C@H]1CNC(=N)N1C[C@H](Cc1ccc(O)cc1)N1C[C@H](CC(C)C)NC1=N [1968-71],58 nM,53 nM,55.5 nM,56 nM,373 nM,386 nM,380 nM,380 nM,3830 nM,3430 nM,3430 nM,3020 nM
N=C1NC[C@H](Cc2ccc(O)cc2)N1C[C@H](Cc1ccccc1)N1C[C@H](Cc2ccccc2)NC1=N [1968-17],1070 nM,741 nM,907 nM,907 nM,6270 nM,6840 nM,6550 nM,6550 nM,7930 nM,7100 nM,7100 nM,6270 nM
Cc1cc(O)cc(C)c1C[C@H]1CN([C@@H](Cc2c(C)cc(O)cc2C)CN2C(=N)NC[C@@H]2Cc2ccccc2)C(=N)N1 [1968-68],89.3 nM,76.7 nM,83 nM,83 nM,538 nM,568 nM,553 nM,553 nM,426 nM,462 nM,462 nM,498 nM
CC(C)C[C@H]1CN([C@@H](Cc2ccc(O)cc2)CN2C(=N)NC[C@@H]2C)C(=N)N1 [1968-39],1240 nM,1770 nM,1500 nM,1500 nM,4090 nM,7720 nM,5900 nM,5900 nM,4150 nM,3830 nM,3830 nM,3510 nM
N=C1NC[C@H](Cc2ccccc2)N1C[C@H](Cc1ccccc1)N1C[C@H](Cc2ccccc2)NC1=N [1968-65],2370 nM,2830 nM,2600 nM,2600 nM,16600 nM,15200 nM,15900 nM,15900 nM,7340 nM,7320 nM,7320 nM,7290 nM
Cc1cc(O)cc(C)c1C[C@H]1CN([C@@H](Cc2ccc(O)cc2)CN2C(=N)NC[C@@H]2C)C(=N)N1 [1968-40],36.4 nM,48.8 nM,42.6 nM,43 nM,235 nM,263 nM,249 nM,249 nM,1520 nM,1420 nM,1420 nM,1320 nM
Cc1cc(O)cc(C)c1C[C@H]1CNC(=N)N1C[C@H](CC(C)C)N1C[C@H](Cc2ccccc2)NC1=N [1968-57],59.6 nM,74.1 nM,66.8 nM,67 nM,371 nM,679 nM,525 nM,525 nM,1400 nM,1240 nM,1240 nM,1070 nM
CC(C)C[C@H]1CN([C@@H](Cc2ccccc2)CN2C(=N)NC[C@@H]2Cc2ccc(O)cc2)C(=N)N1 [1968-69],208 nM,188 nM,198 nM,198 nM,2120 nM,2130 nM,2120 nM,2120 nM,4230 nM,4630 nM,4630 nM,5020 nM
CC(C)C[C@@H](CN1C(=N)NC[C@@H]1Cc1ccccc1)N1C[C@H](Cc2ccccc2)NC1=N [1968-9],848 nM,955 nM,901 nM,901 nM,11400 nM,10900 nM,11100 nM,11100 nM,9830 nM,7820 nM,7820 nM,5810 nM
N=C1NC[C@H](Cc2ccccc2)N1C[C@H](Cc1ccc(O)cc1)N1C[C@H](Cc2ccc(O)cc2)NC1=N [1968-6],84.5 nM,67.2 nM,75.8 nM,76 nM,5350 nM,3430 nM,4390 nM,4390 nM,4880 nM,4980 nM,4980 nM,5090 nM
